Holding throughout (experiment): DSF 100 kinase selectivity screen;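 further: compound tested at 20 µM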
What all share (assay type): binding

Assay [1] addresses T1, ~100 representative kinases (Homo sapiens, UniProt P34947).
T1 construct: Recombinant protein kinase domains with a concentration of 2 μM
The conditions noted are these: protein GPRK5; average of three replicates. An outline of the steps: (§1)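 Each kinase domain, at 2 μM, is mixed with 20 μM test compound and SYPRO Orange in Hepes (20 mM, pH 7.5) with 500 mM NaCl. Temperature is then raised at 3°C/min and fluorescence-monitored unfolding yields the melting temperature change, ΔTm in degrees Celsius.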

The target in assay [2] is T2, ~100 representative kinases (Homo sapiens, UniProt P49137).
T2 construct: Recombinant protein kinase domains with a concentration of 2 μM
T2 sequence (P49137 whole entry, the tested form may be a part): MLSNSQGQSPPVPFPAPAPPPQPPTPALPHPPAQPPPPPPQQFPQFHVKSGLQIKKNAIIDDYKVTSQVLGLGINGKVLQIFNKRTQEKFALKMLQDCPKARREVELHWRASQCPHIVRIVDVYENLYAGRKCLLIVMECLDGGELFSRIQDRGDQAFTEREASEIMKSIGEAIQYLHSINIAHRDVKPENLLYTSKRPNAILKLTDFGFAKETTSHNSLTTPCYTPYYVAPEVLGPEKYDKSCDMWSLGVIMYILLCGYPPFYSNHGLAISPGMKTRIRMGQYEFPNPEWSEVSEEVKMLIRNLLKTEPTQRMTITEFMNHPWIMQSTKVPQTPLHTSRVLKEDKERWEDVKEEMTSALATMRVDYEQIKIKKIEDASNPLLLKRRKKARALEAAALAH
The conditions noted are these: protein MAPKAPK2; average of three replicates. An outline of the steps:
as §1

Assay [3] has as its target T3, ~100 representative kinases (Homo sapiens, UniProt P49674).
T3 construct: Recombinant protein kinase domains with a concentration of 2 μM
The conditions noted are these: Protein CSNK1E; average of three replicates. An outline of the steps: as §1

The target of assay [4] is T4, ~100 representative kinases (Homo sapiens, UniProt P51813).
T4 construct: Recombinant protein kinase domains with a concentration of 2 μM
T4 sequence (P51813 1-675): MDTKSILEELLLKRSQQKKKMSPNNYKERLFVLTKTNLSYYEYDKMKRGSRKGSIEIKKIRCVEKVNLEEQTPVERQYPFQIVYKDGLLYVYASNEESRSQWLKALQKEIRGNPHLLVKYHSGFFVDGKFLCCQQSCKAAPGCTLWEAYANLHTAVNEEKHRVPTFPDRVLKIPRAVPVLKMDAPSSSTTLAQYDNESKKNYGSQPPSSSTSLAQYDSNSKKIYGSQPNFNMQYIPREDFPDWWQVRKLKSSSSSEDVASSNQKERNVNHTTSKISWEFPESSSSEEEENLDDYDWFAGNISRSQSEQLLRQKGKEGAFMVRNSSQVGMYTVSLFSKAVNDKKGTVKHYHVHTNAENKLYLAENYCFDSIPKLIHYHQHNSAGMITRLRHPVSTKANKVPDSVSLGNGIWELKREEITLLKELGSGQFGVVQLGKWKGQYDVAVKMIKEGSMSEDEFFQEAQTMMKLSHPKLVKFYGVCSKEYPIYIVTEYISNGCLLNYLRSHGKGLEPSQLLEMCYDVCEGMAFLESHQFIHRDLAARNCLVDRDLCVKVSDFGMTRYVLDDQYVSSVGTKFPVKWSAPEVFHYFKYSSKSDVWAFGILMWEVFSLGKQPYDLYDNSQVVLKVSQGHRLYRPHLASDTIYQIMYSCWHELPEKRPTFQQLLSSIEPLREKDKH
The conditions noted are these: Protein BMX; average of three replicates. An outline of the steps:
as §1

For assay [5], the target named is T5, ~100 representative kinases (Homo sapiens, UniProt P54762).
T5 construct: Recombinant protein kinase domains with a concentration of 2 μM
T5 sequence (P54762 18-984): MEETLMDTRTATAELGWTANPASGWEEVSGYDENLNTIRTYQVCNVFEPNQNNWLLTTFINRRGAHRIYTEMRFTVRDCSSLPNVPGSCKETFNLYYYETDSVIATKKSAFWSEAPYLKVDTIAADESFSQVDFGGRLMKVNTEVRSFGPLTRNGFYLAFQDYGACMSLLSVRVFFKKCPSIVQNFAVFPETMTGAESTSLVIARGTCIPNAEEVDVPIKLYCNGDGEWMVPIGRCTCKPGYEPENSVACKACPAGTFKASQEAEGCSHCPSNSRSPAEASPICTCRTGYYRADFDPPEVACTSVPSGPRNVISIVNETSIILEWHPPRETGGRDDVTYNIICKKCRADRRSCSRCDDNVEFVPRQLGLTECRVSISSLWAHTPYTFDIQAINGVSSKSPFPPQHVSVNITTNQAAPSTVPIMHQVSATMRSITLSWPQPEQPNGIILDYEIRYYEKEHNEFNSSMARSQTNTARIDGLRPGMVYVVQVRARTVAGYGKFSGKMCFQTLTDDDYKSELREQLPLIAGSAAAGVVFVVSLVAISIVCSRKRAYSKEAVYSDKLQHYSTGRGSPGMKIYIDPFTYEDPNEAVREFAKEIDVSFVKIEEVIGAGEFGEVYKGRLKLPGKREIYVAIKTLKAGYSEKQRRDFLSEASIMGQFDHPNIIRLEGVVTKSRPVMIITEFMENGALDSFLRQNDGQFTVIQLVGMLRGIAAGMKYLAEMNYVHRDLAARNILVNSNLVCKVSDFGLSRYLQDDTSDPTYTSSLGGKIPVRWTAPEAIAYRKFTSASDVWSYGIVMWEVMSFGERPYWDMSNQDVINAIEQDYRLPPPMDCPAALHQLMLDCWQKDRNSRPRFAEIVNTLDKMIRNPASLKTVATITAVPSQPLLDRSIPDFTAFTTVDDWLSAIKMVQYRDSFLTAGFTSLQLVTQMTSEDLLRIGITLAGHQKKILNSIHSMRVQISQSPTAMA
The conditions noted are these: Protein EPHB1; average of three replicates. An outline of the steps: as §1

Assay [6] deals with T6, ~100 representative kinases (Homo sapiens, UniProt Q9Y243).
T6 construct: Recombinant protein kinase domains with a concentration of 2 μM
T6 sequence (Q9Y243 whole entry, the tested form may be a part): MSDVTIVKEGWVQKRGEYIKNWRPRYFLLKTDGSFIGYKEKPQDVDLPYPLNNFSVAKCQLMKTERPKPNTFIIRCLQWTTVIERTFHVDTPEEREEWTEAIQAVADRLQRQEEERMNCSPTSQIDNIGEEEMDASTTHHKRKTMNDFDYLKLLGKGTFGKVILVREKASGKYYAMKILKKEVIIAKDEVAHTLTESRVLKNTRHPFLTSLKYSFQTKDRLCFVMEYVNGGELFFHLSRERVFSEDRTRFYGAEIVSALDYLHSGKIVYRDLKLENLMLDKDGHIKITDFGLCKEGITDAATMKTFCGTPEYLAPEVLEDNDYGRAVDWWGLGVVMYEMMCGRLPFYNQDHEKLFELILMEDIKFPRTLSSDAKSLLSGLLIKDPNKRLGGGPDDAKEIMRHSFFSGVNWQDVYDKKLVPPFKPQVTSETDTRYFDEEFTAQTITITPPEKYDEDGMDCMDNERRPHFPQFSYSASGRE
The conditions noted are these: Protein AKT3; average of three replicates. An outline of the steps: as §1

The target of assay [7] is T7, ~100 representative kinases (Homo sapiens, UniProt Q9Y2H1).
T7 construct: Recombinant protein kinase domains with a concentration of 2 μM
T7 sequence (Q9Y2H1 whole entry, the tested form may be a part): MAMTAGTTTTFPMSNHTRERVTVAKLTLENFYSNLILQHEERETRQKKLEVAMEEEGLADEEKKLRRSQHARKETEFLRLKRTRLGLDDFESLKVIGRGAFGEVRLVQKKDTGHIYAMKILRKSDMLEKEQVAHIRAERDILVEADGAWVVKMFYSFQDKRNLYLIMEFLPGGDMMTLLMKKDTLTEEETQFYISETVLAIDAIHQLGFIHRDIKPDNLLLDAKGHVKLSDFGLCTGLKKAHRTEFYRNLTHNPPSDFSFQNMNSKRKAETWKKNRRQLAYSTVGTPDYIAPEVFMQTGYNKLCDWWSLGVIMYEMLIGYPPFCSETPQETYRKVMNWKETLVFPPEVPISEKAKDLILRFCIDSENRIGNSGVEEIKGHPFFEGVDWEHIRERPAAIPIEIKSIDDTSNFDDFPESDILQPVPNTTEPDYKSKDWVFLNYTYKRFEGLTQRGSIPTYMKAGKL
The conditions noted are these: Protein STK38L; DSF; average of three replicates. An outline of the steps: as §1

T1 sequence (P34947 whole entry, the tested form may be a part): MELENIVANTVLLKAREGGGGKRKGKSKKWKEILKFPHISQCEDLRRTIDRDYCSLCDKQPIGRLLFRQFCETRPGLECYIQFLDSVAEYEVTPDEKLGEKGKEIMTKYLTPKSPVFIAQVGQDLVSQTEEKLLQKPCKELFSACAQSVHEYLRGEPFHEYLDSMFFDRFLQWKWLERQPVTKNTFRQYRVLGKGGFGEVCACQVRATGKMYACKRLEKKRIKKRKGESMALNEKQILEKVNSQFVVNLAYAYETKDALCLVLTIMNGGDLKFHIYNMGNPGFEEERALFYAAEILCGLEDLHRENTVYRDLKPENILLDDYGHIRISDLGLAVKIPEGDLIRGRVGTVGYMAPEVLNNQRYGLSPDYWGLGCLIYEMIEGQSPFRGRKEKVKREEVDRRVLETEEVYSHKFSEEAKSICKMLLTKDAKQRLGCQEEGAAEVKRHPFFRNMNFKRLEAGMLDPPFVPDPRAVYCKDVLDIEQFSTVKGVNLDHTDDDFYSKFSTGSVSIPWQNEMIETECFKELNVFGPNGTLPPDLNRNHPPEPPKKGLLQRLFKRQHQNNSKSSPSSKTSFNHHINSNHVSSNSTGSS
T3 sequence (P49674 whole entry, the tested form may be a part): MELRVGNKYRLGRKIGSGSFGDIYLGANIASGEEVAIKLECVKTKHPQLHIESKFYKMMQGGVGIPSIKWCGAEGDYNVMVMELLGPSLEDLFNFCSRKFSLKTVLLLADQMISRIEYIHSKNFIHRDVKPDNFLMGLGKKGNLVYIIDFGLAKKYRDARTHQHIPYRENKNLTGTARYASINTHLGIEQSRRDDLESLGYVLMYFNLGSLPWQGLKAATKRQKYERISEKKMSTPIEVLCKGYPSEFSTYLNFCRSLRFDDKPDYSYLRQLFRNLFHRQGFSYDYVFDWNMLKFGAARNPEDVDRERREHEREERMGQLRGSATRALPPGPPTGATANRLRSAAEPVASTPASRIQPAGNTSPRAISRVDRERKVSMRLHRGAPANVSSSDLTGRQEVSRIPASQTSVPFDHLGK

As to `COc1cc(S(C)(=O)=O)ccc1Nc1nc(N(C)C)c2c(Cl)c[nH]c2n1` [Compound 37], the dTm in assay [1] is on record as 1.16 K; in assay [2], 0.98 K; in assay [3], 1.77 K; in assay [4], -0.17 K; in assay [5], -0.51 K; in assay [6], -0.25 K. In assay [7], this compound came in with a dTm of -1.21 K.

As for `COc1cc2c(Oc3ccc(NC(=O)C4(C(=O)Nc5ccc(F)cc5)CC4)cc3F)ccnc2cc1OCCCN1CCOCC1` [Foretinib, reference compound], the dTm was 0.60 K in assay [1]; 0.33 K in assay [2]; 3.48 K in assay [3]; 6.77 K in assay [4]; 12.70 K in assay [5]; -0.34 K in assay [6]. This compound registered a dTm in assay [7] of 0.47 K.

Values taken from paper PMC12136037, “Type II kinase inhibitors that target Parkinson’s disease–associated LRRK2” (Science Advances, 2025).
